Structures are written as SMILES. *1 amine or outer side, *2 acyl side, *3 side chain or, on linkers, in order; H or OH if unused. Where a SMILES comes first, the peptide text is derived from it. Bridges are numbered along the chain shown (N, C = ends). [ ]: non-standard residue; d: D form. The star is where a group is joined. ξ: configuration not given here. X9 = CSCC[C@H](NC(=O)c1ccc(CNC(=O)CN2CCN(CC(=O)O)CCN(CC(=O)O)CCN(CC(=O)O)CC2)cc1)C(=O)N[C@H](C(=O)N[C@@H](CCCCN*)C(=O)O)C(C)C; Ala(piperidin-4-yl) = O=C([C@H](CC1CCN([*:3])CC1)N[*:1])[*:2]; DOTA = O=C(O)CN1CCN(CC(=O)O)CCN(CC(=O)*)CCN(CC(=O)O)CC1; Trp(7-Me) = Cc1cccc2c(C[C@H](N)C(=O)O)c[nH]c12; Trp(7-aza) = N[C@@H](Cc1c[nH]c2ncccc12)C(=O)O; Trp(1-Me) = Cn1cc(C[C@H](N)C(=O)O)c2ccccc21; NMeW = CN[C@@H](Cc1c[nH]c2ccccc12)C(=O)O; 2Nal = N[C@@H](Cc1ccc2ccccc2c1)C(=O)O; Gly(4-THP) = N[C@H](C(=O)O)C1CCOCC1; NMeNle = CCCC[C@H](NC)C(=O)O; Tle = CC(C)(C)[C@H](N)C(=O)O; ξIle = CC[C@H](C)C(N)C(=O)O

The target in this test is T1, DLL3 (Homo sapiens, UniProt Q9NYJ7).
T1 sequence (Q9NYJ7 27-618): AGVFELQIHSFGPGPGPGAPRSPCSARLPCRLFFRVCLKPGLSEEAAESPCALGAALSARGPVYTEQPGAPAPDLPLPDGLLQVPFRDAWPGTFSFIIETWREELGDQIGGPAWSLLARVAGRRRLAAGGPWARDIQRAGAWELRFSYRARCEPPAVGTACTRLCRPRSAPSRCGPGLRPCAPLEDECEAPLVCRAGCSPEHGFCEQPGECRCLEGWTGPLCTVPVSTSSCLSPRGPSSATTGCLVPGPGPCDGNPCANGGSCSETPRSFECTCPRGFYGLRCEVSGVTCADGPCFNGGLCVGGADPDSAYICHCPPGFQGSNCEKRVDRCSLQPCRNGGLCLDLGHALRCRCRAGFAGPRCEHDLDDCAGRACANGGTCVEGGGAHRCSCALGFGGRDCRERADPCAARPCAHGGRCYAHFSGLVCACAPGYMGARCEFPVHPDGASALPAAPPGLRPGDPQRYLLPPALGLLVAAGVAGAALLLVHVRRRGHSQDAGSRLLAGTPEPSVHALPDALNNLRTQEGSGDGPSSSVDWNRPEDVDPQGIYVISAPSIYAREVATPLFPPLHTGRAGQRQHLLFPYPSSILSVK
Description: SPR KD, biotinylated human DLL3 on streptavidin chip (Table 8). Also noted: biotin (biotinylated). The conditions noted are these: biotinylated human DLL3 on streptavidin sensor chip, 25° C., 1:1 binding model; read-out: SPR KD. An excerpt:
Biotinylated target ligand human DLL3 was immobilized on a streptavidin sensor chip. A reference surface was set up for nonspecific binding and refractive index changes. […] Sensorgram curves were fitted with 1:1 binding model, and affinity and kinetic parameters were obtained using Biacore Insight evaluation 4.0. software.
In general, Kd refers to the equilibrium constant for the complex coming apart. On to `CCCC[C@@H](C(=O)N[C@H]1CSSC[C@@H](C(=O)N[C@@H](Cc2c[nH]c3ccccc23)C(=O)N2CCC[C@H]2C(N)=O)NC(=O)[C@H](CC(=O)O)NC(=O)[C@H](CCCCNC(=O)CN2CCN(CC(=O)O)CCN(CC(=O)O)CCN(CC(=O)O)CC2)NC(=O)[C@H](Cc2ccc3ccccc3c2)NC(=O)[C@H](CC(N)=O)NC(=O)[C@H](CC2CCNCC2)NC1=O)N(C)C(=O)[C@@H](NC(=O)[C@H](Cc1c[nH]c2c(C)cccc12)NC(C)=O)[C@@H](C)O` [compound 408, Ac-(7Me-Trp)-T-(NMe-Nle)-C(3)-[3-(4-piperidinyl)-Ala]-N-(2Nal)-Lys(DOTA)-D-C(3)-W-P-CONH2] (Ac-[Trp(7-Me)]T[NMeNle]C[Ala(piperidin-4-yl)]N[2Nal]K(DOTA)DCWP-NH2; disulfide 4-10), for which the Kd is less than 1 nM.
As to `CC[C@H](C)C(NC(=O)[C@@H](NC(=O)[C@H](Cc1c[nH]c2ccccc12)NC(C)=O)[C@@H](C)O)C(=O)N[C@H]1CSSC[C@@H](C(=O)N[C@@H](Cc2c[nH]c3ccccc23)C(=O)N2CCC[C@H]2C(=O)N[C@H](CCCCNC(=O)CN2CCN(CC(=O)O)CCN(CC(=O)O)CCN(CC(=O)O)CC2)C(N)=O)NC(=O)[C@H](CC(=O)O)NC(=O)[C@H](Cc2cnc[nH]2)NC(=O)[C@H](Cc2ccc3ccccc3c2)NC(=O)[C@H](CCCCNC(=O)CN2CCN(CC(=O)O)CCN(CC(=O)O)CCN(CC(=O)O)CC2)NC(=O)[C@H](CC(N)=O)NC1=O` (stereo partly drawn) [compound 248, Ac-W-T-I-C(3)-N-Lys(DOTA)-(2Nal)-H-D-C(3)-W-P-[D-Lys(DOTA)]-NH2] (Ac-WT[ξIle]CNK(DOTA)[2Nal]HDCWP[dK](DOTA)-NH2; disulfide 4-10), the Kd was less than 1 nM.
With `CSCC[C@H](NC(=O)c1ccc(CNC(=O)CN2CCN(CC(=O)O)CCN(CC(=O)O)CCN(CC(=O)O)CC2)cc1)C(=O)N[C@H](C(=O)N[C@@H](CCCCNC(=O)CC[C@@H]1NC(=O)[C@H](Cc2ccc3ccccc3c2)NC(=O)[C@H](CC(N)=O)NC(=O)[C@H](CC2CCNCC2)NC(=O)[C@@H](NC(=O)[C@@H](NC(=O)[C@@H](NC(=O)[C@H](Cc2c[nH]c3ccccc23)NC(C)=O)[C@@H](C)O)C2CCOCC2)CSSC[C@@H](C(=O)N[C@@H](Cc2c[nH]c3ccccc23)C(=O)N2CCC[C@H]2C(N)=O)NC(=O)[C@H](CC(=O)O)NC1=O)C(=O)O)C(C)C` [compound 378, Ac-W-T-(THPG)-C(3)-[3-(4-piperidinyl)-Ala]-N-(2Nal)-[Glu(gLys(OH)-Val-Met-AmBz-DOTA)]-D-C(3)-W-P-CONH2] (Ac-WT[Gly(4-THP)]C[Ala(piperidin-4-yl)]N[2Nal]E(X9)DCWP-NH2; disulfide 4-10), the Kd is 1 to 10 nM.
Next, `CC[C@H](C)[C@H](NC(=O)[C@@H](NC(=O)[C@H](Cc1cn(C)c2ccccc12)NC(=O)[C@H](CCSC)NC(C)=O)[C@@H](C)O)C(=O)N[C@H]1CSSC[C@@H](C(=O)N[C@@H](Cc2c[nH]c3ccccc23)C(=O)N2CCC[C@H]2C(N)=O)NC(=O)[C@H](CC(=O)O)NC(=O)[C@H](Cc2cnc[nH]2)NC(=O)[C@H](Cc2c[nH]c3ccccc23)NC(=O)[C@H](CC(N)=O)NC(=O)[C@H](CC(N)=O)NC1=O` [compound 41, Ac-M-(1Me-W)-T-I-C(3)-N-N-W-H-D-C(3)-W-P-CONH2] (Ac-M[Trp(1-Me)]TICNNWHDCWP-NH2; disulfide 5-11): 10 to 100 nM; `CC[C@H](C)[C@H](NC(=O)[C@@H](NC(=O)[C@H](Cc1c[nH]c2ccccc12)NC(C)=O)[C@@H](C)O)C(=O)N[C@H]1CSSC[C@@H](C(=O)N[C@@H](Cc2c[nH]c3ccccc23)C(=O)N2CCC[C@H]2C(=O)O)NC(=O)[C@H](CC(=O)O)NC(=O)[C@H](Cc2c[nH]cn2)NC(=O)[C@H](Cc2c[nH]c3ccccc23)N(C)C(=O)[C@H](CC(N)=O)NC(=O)[C@H](CC(N)=O)NC1=O` [compound 386, Ac-W-T-I-C(3)-N-N-(NmeW)-H-D-C(3)-W-P-CONH2] (Ac-WTICNN[NMeW]HDCWP-OH; disulfide 4-10): 100 to 300 nM; `CC[C@H](C)[C@H](NC(=O)[C@@H](NC(=O)[C@H](Cc1c[nH]c2ccccc12)NC(=O)[C@H](CCSC)NC(C)=O)[C@@H](C)O)C(=O)N[C@H]1CSSC[C@@H](C(=O)N[C@@H](Cc2c[nH]c3ccccc23)C(=O)N2CCC[C@H]2C(N)=O)NC(=O)[C@H](CC(=O)O)NC(=O)[C@H](Cc2cnc[nH]2)NC(=O)[C@H](Cc2c[nH]c3ccccc23)NC(=O)[C@@H](C)NC(=O)[C@H](CC(N)=O)NC1=O` [compound 39, Ac-M-W-T-I-C(3)-N-(D-Ala)-W-H-D-C(3)-W-P-CONH2] (Ac-MWTICN[dA]WHDCWP-NH2; disulfide 5-11): 10 to 100 nM.
Next, `CC(=O)N[C@@H](Cc1c[nH]c2ccccc12)C(=O)N[C@H](C(=O)N[C@H](C(=O)N[C@H]1CSSC[C@@H](C(=O)N[C@@H](Cc2c[nH]c3ccccc23)C(=O)N2CCC[C@H]2C(N)=O)NC(=O)[C@H](CC(=O)O)NC(=O)[C@H](Cc2cnc[nH]2)NC(=O)[C@H](Cc2c[nH]c3ccccc23)NC(=O)[C@H](CC(N)=O)NC(=O)[C@H](CC(N)=O)NC1=O)C(C)(C)C)[C@@H](C)O` [compound 336, Ac-W-T-(Tbg)-C(3)-N-N-W-H-D-C(3)-W-P-CONH2] (Ac-WT[Tle]CNNWHDCWP-NH2; disulfide 4-10): 1 to 10 nM; `CC[C@H](C)[C@H](NC(=O)[C@@H](NC(=O)[C@H](Cc1c[nH]c2ccccc12)NC(C)=O)[C@@H](C)O)C(=O)N[C@H]1CSSC[C@@H](C(=O)N[C@@H](Cc2c[nH]c3ccccc23)C(=O)N2CCC[C@H]2C(N)=O)NC(=O)[C@H](CC(=O)O)NC(=O)[C@H](Cc2c[nH]cn2)NC(=O)[C@H](Cc2ccc3ccccc3c2)NC(=O)[C@H](CCCCNC(=O)CN2CCN(CC(=O)O)CCN(CC(=O)O)CCN(CC(=O)O)CC2)NC(=O)[C@H](CC(N)=O)NC1=O` [compound 250, Ac-W-T-I-C(3)-N-Lys(DOTA)-(2Nal)-H-D-C(3)-W-P-CONH2] (Ac-WTICNK(DOTA)[2Nal]HDCWP-NH2; disulfide 4-10): 1 to 10 nM; `CC(=O)N[C@@H](Cc1c[nH]c2ccccc12)C(=O)N[C@H](C(=O)N[C@H](C(=O)N[C@H]1CSSC[C@@H](C(=O)N[C@@H](Cc2c[nH]c3ccccc23)C(=O)N2CCC[C@H]2C(N)=O)NC(=O)[C@H](CC(=O)O)NC(=O)[C@H](CCCCNC(=O)CN2CCN(CC(=O)O)CCN(CC(=O)O)CCN(CC(=O)O)CC2)NC(=O)[C@H](Cc2ccc3ccccc3c2)NC(=O)[C@H](CC(N)=O)NC(=O)C(CN2CCOCC2)NC1=O)C(C)(C)C)[C@@H](C)O` (stereo partly drawn) [compound 309, Ac-W-T-(Tbg)-C(3)-[3-(1-morpholinyl)-Ala]-N-(2Nal)-Lys(DOTA)-D-C(3)-W-P-CONH2]: less than 1 nM.
Turning to `CC[C@H](C)[C@H](NC(=O)[C@@H](NC(=O)[C@H](Cc1c[nH]c2ccccc12)NC(C)=O)[C@@H](C)O)C(=O)N[C@H]1CSSC[C@@H](C(=O)N[C@@H](Cc2c[nH]c3ncccc23)C(=O)N2CCC[C@H]2C(N)=O)NC(=O)[C@H](CC(=O)O)NC(=O)[C@H](Cc2c[nH]cn2)NC(=O)[C@H](Cc2c[nH]c3ccccc23)NC(=O)[C@H](CC(N)=O)NC(=O)[C@H](CC(N)=O)NC1=O` [compound 51, Ac-W-T-I-C(3)-N-N-W-H-D-C(3)-(7Aza-W)-P-CONH2] (Ac-WTICNNWHDC[Trp(7-aza)]P-NH2; disulfide 4-10), the Kd was 1 to 10 nM.

The values above are taken from patent US20250049970A1, “DLL3 TARGETING PEPTIDES AND CONSTRUCTS THEREOF” (MARIANA ONCOLOGY INC., priority 2023, published 2025).
